Test results taken from patent publication US7947279B2, “Peptide having hydrolase activity” (The Trustees of Columbia University in the City of New York, priority 2005, dated 2011).
Entries after “also recorded” stand apart in the source; their conditions may differ.

Columns and labels:
phospho-CREB at Ser-133 = assay: Phospho-CREB (Ser-133) Western blot in hippocampal cultures; format: cell-based, rat; settings: LDN 10 μM
Method: Western Blotting: Protein levels were assessed using standard procedures. Protein extraction was performed using buffer with and without detergent. For the extraction of protein using detergent, hippocampal tissues and cultured hippocampal neurons (5 DIV) were homogenized in RIPA buffer (50 mM Tris-HCl pH 7.4, 1% Triton X-100, 1% sodium deoxycholate, 0.1% SDS, 150 mM sodium chloride, 10 mM sodium fluoride, 30 mM sodium pyrophosphate, 50 mM sodium orthovanadate) containing 1× complete protease inhibitor (Roche) and 1 mM phenylmethylsulfonyl fluoride (PMSF). For extraction of proteins without detergent, hippocampal extracts were homogenized with disposable dounce homogenizers in buffer A, containing 10 mM HEPES pH 7.3, 300 mM sucrose, protease 1× complete protease inhibitor (Roche) and PMSF. After centrifugation at 10,000×g supernatant proteins were resolved on a 8% or 4-20% gradient Tris-Glycine gel, transferred onto PVDF or nitrocellulose membrane and blocked in 5% skim milk in PBS-Tween 0.1% (PBS-T). Membranes were probed with primary antibodies, and after washing with PBS-T incubated with an appropriate HRP-conjugated secondary antibody. The following antibodies were used: mouse monoclonal anti-ubiquitin (Chemicon), rabbit polyclonal anti-pCREB (Upstate Biotech.), rabbit polyclonal anti-PKA-RIIα (Santa Cruz Biotech. Inc), mouse monoclonal anti-Uch-L1 (Novocastra), monoclonal mouse anti-HA (Santa Cruz Biotech. Inc), and anti-PKA IIα. Detection was performed using HRP-conjugated secondary antibodies (Pierce, Rockford, Ill.). To control loading and transfer, protein immunoreactivities were normalized against total extracellular signal-regulated protein kinases (ERK1/2) levels with a rabbit analyzed using a rabbit polyclonal anti-ERK1/2 antibody (Cell Signaling Technology, Inc). NIH IMAGE was used to analyze the scanned blots and quantify the intensity of the protein signals.
Preparation of Cell Cultures. Hippocampal cell cultures were prepared as previously described (Vitolo et al., 2002). In cell culture experiments fetuses at embryonic day 18 from timed pregnant Sprague-Dawley rats (Taconic Farms) were used. Fetuses were sacrificed and the hippocampi removed. Neurons were then dissociated, plated on 6 well-plates coated with poly-L-lysine and maintained in a defined serum-free medium containing minimum essential medium supplemented with N-2, glucose, albumin, pyruvic acid, antibiotics and antimycotics. […] 5 DIV cells were used for the experiments.

mice (WT and APP/PS1) = assay: Contextual and cued fear conditioning; format: in vivo, mouse; settings: for freezing time in contextual learning: at 21 days
Method: Behavioral Studies: Fear conditioning was performed in a conditioning chamber as previously described (Bourtchuladze et al., 1994; Gong et al., 2004). For contextual and cued fear conditioning mice were placed in the conditioning chamber for 2 min before the onset of a discrete tone (CS) (a 30 sec sound at 2800 Hz and 85 dB). In the last 2 sec of the CS, mice were given a foot shock (US) of 0.50 mA for 2 sec through the bars of the floor. After the CS/US pairing, the mice were left in the conditioning chamber for another 30 sec and then placed back in their home cages. Freezing behavior, defined as the absence of all movement except for that necessitated by breathing, was scored using Freezeview software. To evaluate contextual fear learning, freezing was measured for 5 min in the chamber in which the mice were trained 24 hrs after training. To evaluate cued fear conditioning, following contextual testing, the mice were placed in a novel context (triangular cage with smooth flat floor and with vanilla odorant) for 2 min (pre-CS test), after which they were exposed to the CS for 3 min (CS test), and freezing was measured. To evaluate the contextual fear over time, mice were placed for 5 min in the chamber in which the mice were trained 7- 14- 21-days after training. Sensory perception of the shock was determined through threshold assessment. Each animal was placed individually into the conditioning chamber. […] Animal behavior was evaluated for the first visible response to the shock (flinch), the first extreme motor response (run/jump), and the first vocalized distress (scream). Threshold to flinching, jumping, and screaming was quantified for each animal by averaging of the shock intensity at which each animal manifested a behavioral response of that type to the foot shock. Visual, motor, and motivation skills were also tested with visible platform training by measuring the time and the speed to reach a visible platform placed within a pool filled with water (Gong et al., 2004). Both time to reach the platform and swimming speed were recorded and analyzed with a video tracking system (HVS-2020, HVS Image, UK). No difference was observed among different groups of mice in the experiments in which fear conditioning was tested both in the presence of LDN and TAT fusion proteins. To decide the time of administration of LDN, experiments were performed in which the inhibitor was injected intra-peritoneally at different intervals (4 hrs before, 1 hr before, 1 hr after and 4 hrs after) from the electric shock. During the training phase, no difference was found in the freezing of LDN- or vehicle-injected mice.

[1] = tested on: BST at the Schaffer collateral/CA1 connection of hippocampal slices; assay: Basal synaptic transmission (BST) in hippocampal slices; format: cell-based, mouse
[2] = tested on: CA1-LTP in hippocampal slices; assay: CA1-LTP in hippocampal slices (theta-burst); format: cell-based, mouse
[3] = tested on: SY5Y neuroblastoma cells transfected with a degron CL1-GFP expression vector; assay: Proteasome reporter assay (GFP^u); format: cell-based, human; settings: substance alone
Method: Proteasome reporter assays. In this cell line, human neuroblastoma SH-SY5Y cells were permanently transfected with reporter construct consisting of green fluorescent protein (GFP) conjugated at its C-terminus to a short degron sequence (CL-1) (Gilon et al., 1998). […] The SY5Y-GFP^u cells were grown in 1×DMEM (Invitrogen) supplemented with 15% fetal bovine serum (JRH), 1× penicillin/streptomycin (Gibco). After indicated treatments, GFP^u concentrations were assayed by densitometric analysis of immunoblots of total protein extracts (10 ug/lane) using monoclonal GFP antibodies (Santa Cruz Biotechnology) and visualized with HRP-conjugated secondary antibodies and ECL (Pierce). Loading equalization was normalized by probing blots with anti-ERK antibodies (Santa Cruz Biotechnology).

[4] = LDN 5 μM, 15 min, listed as LDN

CC(=O)O/N=C1\C(=O)N(Cc2cc(Cl)ccc2Cl)c2ccc(Cl)cc21 [LDN-57444, reference compound]
phospho-CREB enhancement / beneficial effect of TAT-HA-Uch-L1 (phospho-CREB at Ser-133): blocked the beneficial effect of TAT-HA-Uch-L1; also recorded: did not allow the enhancement of phospho-CREB
phospho-CREB enhancement / beneficial effect of TAT-HA-Uch-L1 (phospho-CREB at Ser-133; listed as LDN): blocked the beneficial effect of TAT-HA-Uch-L1; also recorded: did not allow the enhancement of phospho-CREB
cued fear conditioning (mice (WT and APP/PS1); LDN 0.4 mg/kg i.p.): did not show a difference
freezing time in contextual conditioning (mice (WT and APP/PS1); LDN 0.4 mg/kg i.p. 4 hrs after the electric shock, twenty-four hours later): 74 % of that of vehicle-treated mice
freezing time in contextual learning (mice (WT and APP/PS1); LDN 0.4 mg/kg i.p.): about 70 % of vehicle-treated mice
freezing time in contextual learning (mice (WT and APP/PS1); LDN 0.4 mg/kg i.p., listed as LDN): 70 % of vehicle-treated mice
contextual conditioning performance (mice (WT and APP/PS1); LDN 0.4 mg/kg i.p., context at 1, 7, 14 and 21 days after training): worsened contextual conditioning performance
contextual learning (mice (WT and APP/PS1); LDN injected at 4 and 1 hour before the shock or at 1 hour after the shock): failed to impair contextual learning
freezing during the training phase (mice (WT and APP/PS1); LDN- versus vehicle-injected mice): no difference
BST ([1]; LDN 2.7 μM and 1 μM, 2-4 hr, listed as LDN): normal BST; also recorded: did not affect CA1-BST
BST ([1]; LDN 5 μM, 15 min): did not affect BST or LTP; also recorded: did not affect CA1-BST
BST [1, 4]: did not affect basal synaptic transmission (BST) or LTP; also recorded: does not affect CA1-BST
BST ([1]; LDN 5 μM, 2 hrs): without affecting BST; also recorded: not affected
BST ([1]; LDN 5 μM, 2 hrs, listed as LDN): without affecting BST; also recorded: not affected
BST ([1]; LDN 5 μM, 4 hrs): strongly reduced
BST ([1]; LDN 5 μM, 4 hrs, listed as LDN): reduced both; also recorded: strongly reduced
BST ([1]; LDN-57444, 4 hour exposure): approximately 40 % of vehicle treated slices
LTP ([2]; LDN 1 μM, 2-4 hr, listed as LDN): has no effect
LTP ([2]; LDN 2.7 μM, 2-4 hr, listed as LDN): reduces CA1-LTP
LTP in Aβ-treated slices ([2]; LDN 5 μM for 2 hrs, 200 nM Aβ, listed as LDN): does not further reduce potentiation; also recorded: did not further reduce LTP
LTP in APP/PS1 slices ([2]; LDN 5 μM for 2 hrs, listed as LDN): does not further reduce potentiation; also recorded: did not further reduce LTP
LTP ([2]; LDN 5 μM, 15 min): did not affect BST or LTP; also recorded: did not affect CA1-LTP
LTP [2, 4]: did not affect basal synaptic transmission (BST) or LTP; also recorded: did not affect CA1-LTP
LTP ([2]; LDN 5 μM, 2 hrs): blocked
LTP ([2]; LDN 5 μM, 2 hrs, listed as LDN): diminished LTP; also recorded: reduced
LTP ([2]; LDN 5 μM, 4 hrs): strongly reduced
LTP ([2]; LDN 5 μM, 4 hrs, listed as LDN): reduced both; also recorded: strongly reduced
LTP ([2]; LDN-57444, 2 hour exposure): approximately 70 % of vehicle treated slices
LTP ([2]; LDN-57444, 4 hour exposure): ~65 % of vehicle treated slices
baseline transmission in slices without tetanic stimulation ([2]; non-tetanized slices): did not affect baseline transmission
GFP^u levels [3]: much larger increase in GFP
